In US20240116994A1, “Peptides And Use Thereof For Diagnosing And Treating Antiphospholipid Syndrome” (UNIVERSITE DE GENEVE, priority 2021, published 2024):
One block for each molecule: values may come before it. Where no end group is shown, it is not given here. The star is where a group is joined. Biotin = O=C1N[C@H]2[C@H](CS[C@H]2CCCCC(=O)*)N1

Columns and labels:
[1] = tested on: aPL (pool from APS patients); assay: Determination of aPL by ELISA on coated peptides / biotinylated peptides (custom immunoassay); assay type: binding, Human; details: for increase fold mean of aPL interaction relative to β2GP1: ELISA, 1/10 dilution of aPL pool, reference reduced β2GP1 (FIG. 1A)
Procedure: Determination of aPL by ELISA—MaxiSorp™ 96 well plates (Nunc) or Streptavidin plate (Thermofisher) were coated with 10 μg/ml recombinant domains of β2GP1, peptides or biotinylated-peptide prior to incubation with aPLA. Secondary anti-human antibodies conjugated to IR800CW (Rockland) or HRP were used. Protein- or peptide-bound antibodies were detected and quantified by the Odyssey system (Li-Cor Biosciences) or absorbance in optical densities (OD) was determined at 405 nm (molecular Devices™ Filtermax).
(§1) The de Groot's research group has pointed at the importance of hydrophobic character of the plate during coating of R39-R43 epitope. In order to abrogate of the plate-dependent aPL binding, the Ia-1 and Ib-1 peptides as well as the R39-R43 with a biotin at their N-terminal were synthetized and coated a streptavidin plate. In this configuration, the different peptides are flag oriented in the space preventing any interaction with the plate. It was thus observed that the flag-type orientation of R39-R43-biot leads to 8.52×more interaction with aPL while they show 9.63×more binding for Ib-1-biot presenting the same position. […] The surface plasmon resonance (SPR) technique is used to determine the relative avidity of aPL for R39-R43-biot and Ib-1-biot. The interaction between aPL and immobilized R39-R43-biot or Ib-1-biot is monitored by flowing various concentrations of aPL over a R39-R43-biot- or Ib-1-biot-coated chip surface (FIG. 1C). Through SPR experiments, it appears that aPL avidity for Ib-1-biot presents a resonance unit (RU) of 51.49 at 1/1,000 of dilution and a RU of 27.61 at 1/10,000 of dilution while, at the same dilution, it present a RU of 27.36 and a RU of 17.99 with R39-R43-biot, respectively (FIG. 1C). However, at higher concentrations, the peptides seems to show no differences in the interactions with aPL. […] Considering that IgG valency, it was decided to generate a dimeric Ib-1-biot peptide (Ib-1-biot-2x). This new polypeptide carries thus two optimized epitopes which have the opportunity to interact with two Fab fragment present on aPL. […] At higher concentration, i.e dilution of 1/100, the avidity for dimeric peptide is 28×more than for the monomeric (FIG. 1D).
It was performed a peptide substitution scan of Ib-1-biot VSRGGMRKKKKPLTG (SEQ ID NO: 6) carrying the optimized epitope Ib-1-biot and based on an exchange of the underlined amino acid positions with the 20 main amino acids. The resulting peptide microarrays contained 140 different peptides. It was observed that the peptide substitution of the position n° 1, 2, 12 and 15 have significant influences on the ability to interact with aPL from patients 1, 2, 3, 4 and, in particular, form the plasma pool. Indeed, the substitution of the position 1, 12 or 15 by an Arginine (R) or a Lysine (K) increases the avidity of the peptide for all aPL from patients. […] In this context, the enhancement relative to Ib-1.0-biot-2x of identified peptides was evaluated (FIG. 2A). […] However, streptavidin being known to produce unspecific binding, it was used the ratio between aPL and a pool of human plasma as control (B/B0) (FIG. 2B, upper panel). This representation therefore allows to distinguish the real levels of interactions. It was then performed a dilution assay from dilution of 1/100 to 1/1,200,000 and it was observed relevant differences between the different identified peptides. By comparison of area under the curve (AUC), it was possible to detect the most prone-interacting peptide with aPL. Thus, the peptide IIa-8.0-biot-2x obtained the higher AUC (FIG. 2B, bottom panel). To formally quantify the ability of aPL to interact with IIa-8.0-biot-2x, it was monitored by flowing various concentrations of aPL over a IIa-8.0-biot-2x-coated chip surface (FIG. 2C). […] In FIG. 2C, bottom panel, it can be appreciated more precisely the improvement of the quality of interactions. […]

[2] = tested on: binding of aPL to IIa-8.0-biot-2x; assay: Inhibition experiments: remaining reactivity of pre-treated aPL on IIa-8.0-biot-2x ELISA; parameters: species or system Human; details: aPL pool sera preincubated 90 min at RT with 1, 10 and 10011 g/ml peptide
Procedure: To examine the functional ability of IIa-5.0, IIa-7.1, IIa-8.0 peptides and R39-R43 to inhibit the activity of pool of aPL isolated from APS patients, the remaining reactivity of aPL was evaluated for IIa-8.0-biot-2x which had previously been treated with increasing concentration of peptides. […] The flag-type orientation prevents potential interactions with the plate or with itself, particularly in solution. Streptavidin magnetic beads associated with IIa-5.0-biot-2x, IIa-7.1-biot-2x and Ha-8.0-biot-2x peptides have been generated. aPL was treated with increasing concentrations of beads before to measure the remaining binding activity of aPL on IIa-8.0-biot-2x ELISA (FIG. 7C).
To assess the ability of IIa-5.0-2x, IIa-7.1-2x and IIa-8.0-2x to inhibit in vitro the binding of aPL to IIa-8.0-biot-2x. aPL pool sera were preincubated for 90 min at RT with increasing concentrations (1, 10 and 10011 g/ml) of monomeric, dimeric IIa-5.0, IIa-7.1 and IIa-8.0 peptides and of IIa-5.0-biot-2x, IIa-7.1-biot-2x and IIa-8.0-biot-2x-associated beads (15, 30 and 60 pmol). 120 pmol correspond to the amount of IIa-8.0-biot-2x coated in well of Streptavidin Coated High Capacity Plates 96 well plates (Thermofisher). After the pre-incubation time, the serum was added anti-b2GP1 IgG (anti-IIa-8.0-2x) ELISA according to the protocol.

[3] = tested on: aPL from a pool of 13 Human patients; assay: Surface plasmon resonance, aPL flown over biotin-peptide-coated SA chip (BIAcore X100); assay type: binding; details: for sustained interaction / stability of binding with aPL (shape of SPR curves): stabilization curves
Procedure: The kinetics and affinity of protein-protein and protein-lipid interactions were determined using a BIAcore X100 instrument. 1 mg/ml of biotin-tagged peptide (ligand) was immobilized using a sensor chip SA (GE Healthcare) surface, whereas aPL from a pool of 13 Human patients were flown as analyte. The first flow cell of the sensor chip was used as a control surface (no protein), whereas the second flow cell was employed as the active surface. A range of dilution of aPL analytes prepared in the same buffer was injected on both flow cell surfaces at a flow rate of 30 μl/min. Association and dissociation times for each protein injection were set at 90 and 120 s, respectively. In all cases, sensorgrams were obtained from three different dilutions of aPL.
as §1
It was performed a peptide substitution scan of Ib-1-biot VSRGGMRKKKKPLTG (SEQ ID NO: 6) carrying the optimized epitope Ib-1-biot and based on an exchange of the underlined amino acid positions with the 20 main amino acids. The resulting peptide microarrays contained 140 different peptides. It was observed that the peptide substitution of the position n° 1, 2, 12 and 15 have significant influences on the ability to interact with aPL from patients 1, 2, 3, 4 and, in particular, form the plasma pool. Indeed, the substitution of the position 1, 12 or 15 by an Arginine (R) or a Lysine (K) increases the avidity of the peptide for all aPL from patients. […] In this context, the enhancement relative to Ib-1.0-biot-2x of identified peptides was evaluated (FIG. 2A). […] However, streptavidin being known to produce unspecific binding, it was used the ratio between aPL and a pool of human plasma as control (B/B0) (FIG. 2B, upper panel). This representation therefore allows to distinguish the real levels of interactions. It was then performed a dilution assay from dilution of 1/100 to 1/1,200,000 and it was observed relevant differences between the different identified peptides. By comparison of area under the curve (AUC), it was possible to detect the most prone-interacting peptide with aPL. Thus, the peptide IIa-8.0-biot-2x obtained the higher AUC (FIG. 2B, bottom panel). […]

[4] = after a dilution of 100× of aPL (1/1,000) (FIG. 1B)
[5] = streptavidin plate, N-terminal biotin, 1/10 dilution of aPL pool (FIG. 1B)
[6] = aPL at 1/1,000 of dilution (FIG. 1C)
[7] = aPL at 1/10,000 of dilution (FIG. 1C)

Molecule: VSRGGMRKFIKPLTG [Ia-1, corresponding to the first substitution scan]
increase fold mean of aPL interaction relative to β2GP1 [1]: 3.47 fold

Molecule: VSRGGMRKKKKPLTG [Ib-1, corresponding to the second substitution scan]
increase fold mean of aPL interaction relative to β2GP1 [1]: 5.5 fold

Molecule: RSRGGMRKRKKPLTG [IIa-8.0]
inhibition of aPL binding to IIa-8.0-biot-2x ELISA by peptide in solution [2]: prevents their further binding to IIa-8.0-biot-2x ELISA

Molecule: Ib-1-biot: monomeric Ib-1 peptide with a biotin at its N-terminal (Biotin-VSRGGMRKKKKPLTG)
interaction with aPL of flag-oriented biotinylated peptide versus nude peptide [1, 4]: 4.3 ×
interaction with aPL of flag-oriented biotinylated peptide versus nude peptide [1, 5]: 9.63 ×
resonance unit (RU), aPL avidity [3, 6]: 51.49 RU
resonance unit (RU), aPL avidity [3, 7]: 27.61 RU
sustained interaction / stability of binding with aPL (shape of SPR curves) [3]: neither R39-R43-biot nor Ib-1-biot have sustained interaction with aPL

Molecule: VSRGGMRKRKKKKTG [IIa-7.1]
inhibition of aPL binding to IIa-8.0-biot-2x ELISA by peptide in solution [2]: prevents their further binding to IIa-8.0-biot-2x ELISA

Molecule: R39-R43-biot: R39-R43 peptide with a biotin at its N-terminal (Biotin-VSRGGMRKFICPLTG) [reference compound]
interaction with aPL of flag-oriented biotinylated peptide versus nude peptide [1, 4]: 2.83 ×
interaction with aPL of flag-oriented biotinylated peptide versus nude peptide [1, 5]: 8.52 ×
resonance unit (RU), aPL avidity [3, 6]: 27.36 RU
resonance unit (RU), aPL avidity [3, 7]: 17.99 RU
sustained interaction / stability of binding with aPL (shape of SPR curves) [3]: neither R39-R43-biot nor Ib-1-biot have sustained interaction with aPL

inhibition of aPL binding to IIa-8.0-biot-2x ELISA by peptide in solution [2]: failed to significantly inhibit
Molecule: VSRGGMRKFICPLTG [R39-R43, reference compound]
increase fold mean of aPL interaction relative to β2GP1 [1]: same ability to interact with aPL than β2GP1

Molecule: VSRGGMRKRKKPLTK [IIa-5.0]
inhibition of aPL binding to IIa-8.0-biot-2x ELISA by peptide in solution [2]: prevents their further binding to IIa-8.0-biot-2x ELISA

B1: Dom MI: recombinant Domain I-II of β2GP1 (protein)
chain: GRTCPKPDDLPFSTVVPLKTFYEPGEEITYSCKPGYVSRGGMRKFICPLTGLWPINTLKCTPRVCPFAGILENGAVRYTTFEYPNTISFSCNTGFYLNGADSAKCTEEGKWSPELPVCAP
increase fold mean of aPL interaction relative to β2GP1 [1]: same ability to interact with aPL than β2GP1
